The source of these data is US7449453B2, “Compositions of ezetimibe and methods for the treatment of cholesterol-associated benign and malignant tumors” (Karykion Inc., priority 2002, dated 2008).

Assay [1] deals with LNCaP cells transfected with HB-EGF. The experiment in a line: SCID mice transplanted subcutaneously with LNCaP cells transfected with HB-EGF, high cholesterol diet. Format: in vivo. Conditions: for tumor growth and progression vs untreated controls: 10 mg/kg body weight in diet, started 2 weeks after implantation, 6-12 weeks of treatment, intact and castrated animals; for tumor volumes: progression and growth of the implanted tumors vs untreated controls: 30 mg/kg of body weight, started 2 weeks after tumor implantation, after 12 weeks, high cholesterol diet. From the text: Prostate cancer is a leading cause of mortality in males in North America with between 30,000 to 40,000 deaths per year in the United States. While chemotherapy has not been very efficacious in the treatment of prostate cancer, an alternative approach has been to target prostate cancer cell survival pathways, particularly the PI3 kinase/Akt/PTEN signaling axis, which has been identified as an important cell survival mechanism in PCa and other cancers. Recently it has been determined that membrane cholesterol is an important component of a mechanism that transfers survival signals from the cell exterior to the Akt1 serine-threonine kinase. It has also been shown recently that elevated serum cholesterol accelerates the growth, lowers the extent of cellular apotosis, and increases the level of Akt activation in prostate tumors within a murine prostate cancer model. Findings indicate that cholesterol plays a critical role in the ability of prostate cancer cells to resist apoptotic stimuli. The role of cholesterol in prostate cancer cell survival is so critical that drugs that bind cholesterol (polyene macrolides), extract cholesterol from membranes (cyclodextrin) or block cholesterol synthesis (statins) all alter essential membranes (lipid rafts) and reduce their capacity to regulate cell signaling. Cholesterol plays a crucial role in specifically regulating prostate cancer growth and survival. In these studies a unique prostate murine model system is used. This model features the human prostate adenocarcinoma cell line, LNCaP transfected with HB-EGF. LNCAP cells resemble typical prostate tumor cells in their general morphology, production of PSA and PTEN null status. Stable transfection with HB-EGF, a physiologically relevant EGFR ligand that originates in the prostatic stroma, permits LNCaP cells to form tumors in vivo in an androgen—independent manner. Subcutaneous implantation of these LNCaP cells into 4 quadrants of SCID mice results in rapid tumor growth in intact and castrated mice over an eight week period. […] Mice placed on a high cholesterol diet 4 weeks prior to tumor implantation are started on ezetimibe and SCH 48461 @ 30 mg/kg of body weight 2 weeks after tumor implantation.
Subcutaneous implantations of LNCaP cells into 4 quadrants of SCID mice (2×10^6 cells in 150 ul Matrigel per injection site) results in rapid tumor growth in intact and castrated hosts on a high cholesterol diet over an 8 week period. Two weeks after tumor cell implantation, the animals are given ezetimibe in their diet at 10 mg/kg body weight.

The conditions of assay [2]: cited from earlier work; for serum cholesterol levels: mice fed a low cholesterol diet; for elevated serum cholesterol levels: mice, induced by high cholesterol diets.
The subject of assay [3] is tumor initiation and progression. To be noted: long-term rat studies; cited from earlier work.
Assay [4] deals with benign prostatic hyperplasia. To be noted: controlled double blind study; cited from earlier work.
Assay [5] relates to BIO 87.20 male Syrian hamster. The experiment in a line: Ezetimibe treatment of BIO 87.20 male Syrian hamsters that develop spontaneous cystic prostatic hypertrophy and other tumors. Format: in vivo. The source says:
The BIO 87.20 male Syrian hamster is a well-known inbred line that develops, spontaneously, an age-dependent and genetic related cystic prostatic hypertrophy and is recognized in the art as an excellent model for human prostate disease. See, e.g., Homburger et al., 1970, Proc. Soc. Exptl. Biol. Med., 134:284-286; Homburger, 1972, Health Lab Sci., 9:103-111; Wang et al., 1976, Invest. Urol., 14:66-71. The BIO 87.20 strain of hamster develops multiple tumors after 12 months of age.
The stromal hyperplasia and changes in the epithelial cells are also observed upon microscopic examination. […] The BIO 87.20 and BIO 1.5 strains of male Syrian hamster are employed in the ezetimibe studies presented herein. […] Schaffner et al., Lipids 16:835-840 (1981). The defect in cholesterol synthesis and the development of cystic prostatic hypertrophy in the BIO 87.20 male hamster is related.
16 BIO 1.5 and 48 BIO 87.20 male Syrian hamsters are obtained from Bio Breeders, Inc. Boston, Mass. Among these animals, 8 BIO 1.5 and 24 BIO 87.20 hamsters are 6 months of age, while the remainder, consisting of […] and 24 BIO 87.20 hamsters, are 12 months of age. The animals are housed in individual cages. All animals are given water ad libitum and are housed under automatic regime of 12 hours artificial light and 12 hours darkness. Food consumption is be monitored to ensure equivalent intake in all animals. The drug, ezetimibe, is powdered and mixed into ground PURINA® hamster chow. Concentrations of ezetimibe, in the food, is adjusted according to quantity of food intake per hamster per day and expressed as average μg of ezetimibe per kg body weight per day.
The animals are divided into 8 experimental groups containing 8 animals each. The groups may be characterized as follows:
Control BIO 1.5 and control and treated BIO 87.20 male Syrian hamsters, both 6 and 12 months of age, are used as follows. In the treated group of BIO 87.20 male Syrian hamsters, ezetimibe is administered as a powder in the diet. Treatment with doses of ezetimibe of 100 and 1000 micrograms per kilogram body weight of the BIO 87.20 animals is continued for 6 months. […] After 6 months of treatment the animals are sacrificed and the prostate glands excised, weighed and preserved for histopathological examination.

“Also recorded” adds a separate entry of the source.

As for `COc1ccc([C@@H]2[C@@H](CCCc3ccccc3)C(=O)N2c2ccc(OC)cc2)cc1` [SCH 48461], in assay [1], the “tumor growth and progression vs untreated controls” value is “significant inhibition of tumor growth and progression”; the “tumor volumes: progression and growth of the implanted tumors vs untreated controls” value is “significantly inhibits the progression and growth of the implanted tumors”. Moreover, in assay [2], the serum cholesterol levels entry is given as “do not generally affect serum cholesterol levels” and the “elevated serum cholesterol levels” value is on record as “do lower elevated serum cholesterol levels”.

Consider candicidin, for which, in assay [3], the “tumor initiation and progression vs untreated controls” value was “inhibit tumor initiation and progression”.

For the molecule `CC[C@H](CC[C@@H](C)[C@H]1CC[C@H]2[C@@H]3CC=C4C[C@@H](O)CC[C@]4(C)[C@H]3CC[C@]12C)C(C)C` [beta-sitosterol], the “effectiveness in the treatment of benign prostatic hyperplasia” value in assay [4] was “effective”.

Take `O=C1N(c2ccc(F)cc2)[C@H](c2ccc(O)cc2)C12CCC(O)(c1ccc(Cl)cc1)CC2` (single isomer, unassigned; (+)) [SCH 58053, (+)-7-(4-chlorophenyl)-2-(4-flourophenyl)-7-hydroxy-3R-(4-hydroxyphenyl)-2-azaspiro[3,5]nonan-1-one]: in assay [2], the serum cholesterol levels result is recorded as “do not generally affect serum cholesterol levels” and the “elevated serum cholesterol levels” value is listed as “do lower elevated serum cholesterol levels”.

For the molecule `O=C1[C@H](CC[C@H](O)c2ccc(F)cc2)[C@@H](c2ccc(O)cc2)N1c1ccc(F)cc1` [ezetimibe, 1-(4-fluorophenyl)-(3R)-[3-(4-fluorophenyl)-(3S)-hydroxypropyl]-(45)-(4-hydroxyphenyl)-2-azetidinone], the “effect of higher dose on inhibition and reversal of the prostate enlargement” value in assay [5] (1000 μg/kg body weight) is “greater effect on the inhibition and reversal of the prostate enlargement”. In addition, the “inhibitory effect on size increase of the prostate gland, higher vs lower dose” value in assay [5] (1000 μg/kg body weight, beginning at 6 months of age, 6 months) is reported as “greater inhibitory effect on size increase of the prostate gland”. Moreover, in assay [5] (1000 vs 100 μg/kg body weight, beginning at 12 months of age, 6 months), the “level of effect on ventral prostate weights, higher vs lower dose” value is “significantly greater at the higher dosage”. For the same molecule, the “tumors at the end of the experiment vs BIO 87.20 control animals of the same age” value in assay [5] (as referred to Example II) was “no tumors”. Also, the “cystic prostatic hypertrophy on histopathological examination vs untreated controls” value in assay [5] (beginning at 6 months of age, after 6 months of treatment) is listed as “marked reduction in the cystic prostatic hypertrophy”. Also, the “established prostatic enlargement (reversal)” value in assay [5] (beginning at 12 months of age, enlargement already present) is “reverses the prostatic enlargement”. Further, the “miscellaneous tumors other than that of the prostate gland” value in assay [5] (oral 1000 μg/kg body weight, beginning at 12 months of age, 6 months) was “very few tumors are observed”. For the same molecule, the “development of cystic prostatic hypertrophy” value in assay [5] (oral route) is recorded as “inhibits the development of cystic prostatic hypertrophy”. Also, the “other cholesterol-associated tumor formation” value in assay [5] (summary statement, dose not given) was “inhibits other cholesterol-associated tumor formation”. Further, the “histology of the prostates on histopathological examination” value in assay [5] (treated BIO 87.20 compared with BIO 1.5 prostate sections) is “more normal histology”. Besides, the “prostatic enlargement / prostate gland volume vs untreated control BIO 87.20” value in assay [5] (treatment beginning at 6 months of age, 6 months, 100 and 1000 μg/kg body weight in diet) is recorded as “inhibits prostatic enlargement; also recorded: marked inhibitory effect on the prostate gland volume”. In addition, in assay [5] (treatment beginning at 12 months of age, 6 months, 100 and 1000 μg/kg body weight), the “prostatic mass or volume / excised ventral prostate weights vs untreated BIO 87.20 controls” value is given as “reduces the prostatic mass or volume; also recorded: markedly reduced”. Moreover, in assay [1], the “tumor growth and progression vs untreated controls” value was “marked inhibition of tumor growth and progression”; the “tumor volumes: progression and growth of the implanted tumors vs untreated controls” value is “significantly inhibits the progression and growth of the implanted tumors”. In assay [2], the serum cholesterol levels entry is listed as “do not generally affect serum cholesterol levels” and the “elevated serum cholesterol levels” value is given as “do lower elevated serum cholesterol levels”.
